What was measured:
[1] = biological target: Sodium-dependent dopamine transporter (Homo sapiens, UniProt Q01959)
Histamine H2 receptor = Histamine H2 receptor (Homo sapiens, UniProt P25021); assay type: functional, cell-based
Vasopressin V2 receptor = Vasopressin V2 receptor (Homo sapiens, UniProt P30518)
[2] = biological target: T1, Neuropeptide Y receptor type 1 (Homo sapiens, UniProt P25929)
T1 sequence (P25929 whole entry): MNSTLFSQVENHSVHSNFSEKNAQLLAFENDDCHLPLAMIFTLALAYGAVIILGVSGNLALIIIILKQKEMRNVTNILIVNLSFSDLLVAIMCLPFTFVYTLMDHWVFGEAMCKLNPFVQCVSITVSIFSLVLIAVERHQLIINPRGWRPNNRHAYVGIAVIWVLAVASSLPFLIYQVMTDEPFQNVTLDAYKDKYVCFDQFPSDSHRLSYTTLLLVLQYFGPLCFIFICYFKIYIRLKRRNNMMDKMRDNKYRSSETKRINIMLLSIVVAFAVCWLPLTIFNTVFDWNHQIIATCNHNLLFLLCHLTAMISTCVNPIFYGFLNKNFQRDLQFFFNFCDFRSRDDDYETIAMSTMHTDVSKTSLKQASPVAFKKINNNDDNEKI

[3] = biological target: T2, Type-1 angiotensin II receptor (Homo sapiens, UniProt P30556)
T2 sequence (P30556 whole entry): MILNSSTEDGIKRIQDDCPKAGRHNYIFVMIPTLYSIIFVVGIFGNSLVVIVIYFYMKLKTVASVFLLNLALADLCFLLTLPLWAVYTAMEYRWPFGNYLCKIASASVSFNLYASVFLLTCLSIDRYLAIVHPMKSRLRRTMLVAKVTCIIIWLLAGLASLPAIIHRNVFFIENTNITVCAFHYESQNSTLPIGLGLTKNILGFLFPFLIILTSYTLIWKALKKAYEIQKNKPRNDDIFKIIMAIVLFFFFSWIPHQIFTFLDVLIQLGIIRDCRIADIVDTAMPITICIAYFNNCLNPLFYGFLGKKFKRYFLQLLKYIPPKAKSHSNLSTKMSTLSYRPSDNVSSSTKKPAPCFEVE

[4] = biological target: cGMP-inhibited 3',5'-cyclic phosphodiesterase 3A (Homo sapiens, UniProt Q14432); assay type: functional
cGMP-inhibited 3',5'-cyclic phosphodiesterase 3A, sequence (Q14432 whole entry): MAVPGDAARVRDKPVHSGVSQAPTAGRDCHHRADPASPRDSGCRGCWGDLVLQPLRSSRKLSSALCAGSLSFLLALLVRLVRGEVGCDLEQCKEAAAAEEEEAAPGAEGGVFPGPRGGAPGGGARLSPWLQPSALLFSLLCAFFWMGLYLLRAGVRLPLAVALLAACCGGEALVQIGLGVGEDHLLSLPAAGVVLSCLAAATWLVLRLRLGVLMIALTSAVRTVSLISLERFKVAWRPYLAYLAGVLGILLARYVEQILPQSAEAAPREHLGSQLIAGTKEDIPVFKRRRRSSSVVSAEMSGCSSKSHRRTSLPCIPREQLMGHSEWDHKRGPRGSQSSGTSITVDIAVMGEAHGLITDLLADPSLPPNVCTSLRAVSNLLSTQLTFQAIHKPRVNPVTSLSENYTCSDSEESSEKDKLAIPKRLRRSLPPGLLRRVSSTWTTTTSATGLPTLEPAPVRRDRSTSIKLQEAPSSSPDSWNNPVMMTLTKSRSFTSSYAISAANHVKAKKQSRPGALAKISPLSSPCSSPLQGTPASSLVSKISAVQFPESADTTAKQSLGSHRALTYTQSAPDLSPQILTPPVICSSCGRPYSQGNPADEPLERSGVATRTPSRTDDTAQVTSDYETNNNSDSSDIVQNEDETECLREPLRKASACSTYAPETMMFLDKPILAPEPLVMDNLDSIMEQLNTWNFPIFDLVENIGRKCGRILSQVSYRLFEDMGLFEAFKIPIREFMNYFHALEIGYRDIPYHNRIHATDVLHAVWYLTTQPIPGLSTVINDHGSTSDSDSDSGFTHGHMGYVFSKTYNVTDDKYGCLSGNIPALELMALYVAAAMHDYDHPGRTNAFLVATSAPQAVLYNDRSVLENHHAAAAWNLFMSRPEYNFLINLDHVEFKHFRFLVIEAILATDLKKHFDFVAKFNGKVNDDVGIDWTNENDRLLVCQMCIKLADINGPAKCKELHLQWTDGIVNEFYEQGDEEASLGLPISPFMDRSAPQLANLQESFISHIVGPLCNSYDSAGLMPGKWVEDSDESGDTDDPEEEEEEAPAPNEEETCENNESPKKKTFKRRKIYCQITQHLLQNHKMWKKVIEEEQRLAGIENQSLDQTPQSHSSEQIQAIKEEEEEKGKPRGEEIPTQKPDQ

[5] = biological target: 5-hydroxytryptamine receptor 2A (Homo sapiens, UniProt P28223); assay type: functional, cell-based
5-hydroxytryptamine receptor 2A, sequence (P28223 whole entry): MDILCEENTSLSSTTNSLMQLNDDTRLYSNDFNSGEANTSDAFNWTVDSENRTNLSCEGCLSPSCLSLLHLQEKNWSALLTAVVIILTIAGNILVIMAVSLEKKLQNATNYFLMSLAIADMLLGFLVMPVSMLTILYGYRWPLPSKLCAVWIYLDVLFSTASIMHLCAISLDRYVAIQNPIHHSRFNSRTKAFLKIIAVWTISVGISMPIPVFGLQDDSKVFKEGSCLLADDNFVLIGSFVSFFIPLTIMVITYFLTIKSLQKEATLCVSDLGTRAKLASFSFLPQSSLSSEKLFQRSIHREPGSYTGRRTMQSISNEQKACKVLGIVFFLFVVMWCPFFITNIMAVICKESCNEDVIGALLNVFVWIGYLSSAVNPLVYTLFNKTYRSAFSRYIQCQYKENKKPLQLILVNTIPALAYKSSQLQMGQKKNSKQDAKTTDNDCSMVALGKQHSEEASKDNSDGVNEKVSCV

[6] = biological target: 5-hydroxytryptamine receptor 2B (Homo sapiens, UniProt P41595); assay type: functional, cell-based
5-hydroxytryptamine receptor 2B, sequence (P41595 whole entry): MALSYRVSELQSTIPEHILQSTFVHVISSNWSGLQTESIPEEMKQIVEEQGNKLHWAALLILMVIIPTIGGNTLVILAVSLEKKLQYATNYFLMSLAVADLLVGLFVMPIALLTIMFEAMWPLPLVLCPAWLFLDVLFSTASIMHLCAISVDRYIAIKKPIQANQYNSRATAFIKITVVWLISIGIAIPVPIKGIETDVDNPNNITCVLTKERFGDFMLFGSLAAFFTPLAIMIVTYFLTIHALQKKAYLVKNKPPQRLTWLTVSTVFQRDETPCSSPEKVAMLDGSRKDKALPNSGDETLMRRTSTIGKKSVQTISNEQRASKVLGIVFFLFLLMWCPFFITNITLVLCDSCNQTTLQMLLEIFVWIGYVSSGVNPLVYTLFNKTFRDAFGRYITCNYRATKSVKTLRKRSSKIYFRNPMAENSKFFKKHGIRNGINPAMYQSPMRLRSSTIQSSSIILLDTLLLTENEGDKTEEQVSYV

[7] = biological target: T3, Alpha-2C adrenergic receptor (Homo sapiens, UniProt P18825); assay type: functional
T3 sequence (P18825 whole entry): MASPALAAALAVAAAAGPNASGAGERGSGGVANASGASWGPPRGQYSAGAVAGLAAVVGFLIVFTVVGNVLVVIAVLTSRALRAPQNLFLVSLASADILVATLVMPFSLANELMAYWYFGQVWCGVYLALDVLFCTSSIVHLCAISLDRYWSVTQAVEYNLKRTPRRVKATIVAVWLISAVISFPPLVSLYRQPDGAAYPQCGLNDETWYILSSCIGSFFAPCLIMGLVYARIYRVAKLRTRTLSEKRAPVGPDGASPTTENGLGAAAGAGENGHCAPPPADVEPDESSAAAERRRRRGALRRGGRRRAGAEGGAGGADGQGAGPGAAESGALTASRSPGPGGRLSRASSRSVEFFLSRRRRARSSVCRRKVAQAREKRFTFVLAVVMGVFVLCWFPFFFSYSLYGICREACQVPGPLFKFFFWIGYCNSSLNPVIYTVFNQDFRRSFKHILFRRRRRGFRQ

Melanocortin receptor 3 = Melanocortin receptor 3 (Homo sapiens, UniProt P41968)
Melanocortin receptor 3, sequence (P41968 whole entry): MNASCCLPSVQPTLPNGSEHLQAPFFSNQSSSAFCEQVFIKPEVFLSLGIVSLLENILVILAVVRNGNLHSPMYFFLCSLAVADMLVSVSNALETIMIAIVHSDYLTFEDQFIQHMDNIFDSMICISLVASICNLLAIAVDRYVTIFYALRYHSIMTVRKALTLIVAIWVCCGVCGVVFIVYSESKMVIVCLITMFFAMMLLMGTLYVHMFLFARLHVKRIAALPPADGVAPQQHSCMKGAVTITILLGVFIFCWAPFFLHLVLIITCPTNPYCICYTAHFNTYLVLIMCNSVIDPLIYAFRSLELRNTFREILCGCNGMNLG

[8] = biological target: Muscarinic acetylcholine receptor M3 (Homo sapiens, UniProt P20309)
Muscarinic acetylcholine receptor M3, sequence (P20309 whole entry): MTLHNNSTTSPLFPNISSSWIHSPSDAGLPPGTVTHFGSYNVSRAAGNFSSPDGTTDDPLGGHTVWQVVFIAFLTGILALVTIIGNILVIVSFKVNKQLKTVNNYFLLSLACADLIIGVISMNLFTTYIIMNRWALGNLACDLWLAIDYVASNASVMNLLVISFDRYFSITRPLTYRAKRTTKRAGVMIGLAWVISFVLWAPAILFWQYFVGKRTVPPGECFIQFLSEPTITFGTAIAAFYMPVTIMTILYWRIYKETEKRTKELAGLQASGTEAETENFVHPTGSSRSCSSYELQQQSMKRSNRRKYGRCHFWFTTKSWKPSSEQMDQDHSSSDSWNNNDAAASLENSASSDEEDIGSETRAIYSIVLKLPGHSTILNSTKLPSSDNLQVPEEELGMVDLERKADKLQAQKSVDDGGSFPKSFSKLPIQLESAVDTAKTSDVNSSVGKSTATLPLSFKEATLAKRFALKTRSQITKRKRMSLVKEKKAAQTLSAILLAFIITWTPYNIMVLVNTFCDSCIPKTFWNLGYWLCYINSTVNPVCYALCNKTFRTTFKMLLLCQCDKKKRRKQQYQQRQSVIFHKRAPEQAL

[9] = biological target: T4, Alpha-1A adrenergic receptor (Homo sapiens, UniProt P35348); assay type: functional, cell-based
T4 sequence (P35348 whole entry): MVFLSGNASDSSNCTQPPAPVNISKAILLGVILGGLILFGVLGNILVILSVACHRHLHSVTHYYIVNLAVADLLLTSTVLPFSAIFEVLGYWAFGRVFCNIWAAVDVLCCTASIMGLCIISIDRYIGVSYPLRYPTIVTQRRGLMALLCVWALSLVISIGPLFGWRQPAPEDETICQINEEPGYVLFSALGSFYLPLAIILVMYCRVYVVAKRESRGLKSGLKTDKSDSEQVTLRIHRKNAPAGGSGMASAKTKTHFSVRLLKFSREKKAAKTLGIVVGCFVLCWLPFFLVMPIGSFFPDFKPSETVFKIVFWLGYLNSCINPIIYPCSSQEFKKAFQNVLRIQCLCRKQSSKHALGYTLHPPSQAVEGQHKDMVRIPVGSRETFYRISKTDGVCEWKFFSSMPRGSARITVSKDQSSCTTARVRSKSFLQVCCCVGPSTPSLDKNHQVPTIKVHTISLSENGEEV

Glucocorticoid receptor = biological target: T5, Glucocorticoid receptor (Homo sapiens, UniProt P04150)
T5 sequence (P04150 whole entry): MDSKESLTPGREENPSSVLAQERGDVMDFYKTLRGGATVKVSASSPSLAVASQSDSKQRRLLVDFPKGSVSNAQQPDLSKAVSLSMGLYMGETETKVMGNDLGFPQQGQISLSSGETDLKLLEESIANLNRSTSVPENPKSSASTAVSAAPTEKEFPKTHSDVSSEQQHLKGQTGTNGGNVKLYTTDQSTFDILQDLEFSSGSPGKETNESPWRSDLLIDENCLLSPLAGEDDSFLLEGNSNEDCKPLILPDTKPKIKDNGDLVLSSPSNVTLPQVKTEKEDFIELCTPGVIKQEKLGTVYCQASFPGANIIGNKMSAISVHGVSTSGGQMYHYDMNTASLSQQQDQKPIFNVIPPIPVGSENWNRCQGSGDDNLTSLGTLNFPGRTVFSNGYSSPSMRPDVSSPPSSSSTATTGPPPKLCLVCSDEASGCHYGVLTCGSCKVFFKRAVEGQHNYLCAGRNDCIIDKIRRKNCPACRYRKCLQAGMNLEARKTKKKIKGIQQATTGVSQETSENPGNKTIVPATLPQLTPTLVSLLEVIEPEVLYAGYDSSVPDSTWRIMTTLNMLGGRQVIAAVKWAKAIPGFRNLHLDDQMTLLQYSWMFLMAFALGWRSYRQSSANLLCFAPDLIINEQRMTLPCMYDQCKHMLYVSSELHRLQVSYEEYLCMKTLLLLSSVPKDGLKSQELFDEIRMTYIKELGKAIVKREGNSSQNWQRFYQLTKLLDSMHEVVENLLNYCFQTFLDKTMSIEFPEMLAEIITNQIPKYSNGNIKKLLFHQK
Also: assay procedure not described here.

Vasopressin V2 receptor, sequence (P30518 whole entry): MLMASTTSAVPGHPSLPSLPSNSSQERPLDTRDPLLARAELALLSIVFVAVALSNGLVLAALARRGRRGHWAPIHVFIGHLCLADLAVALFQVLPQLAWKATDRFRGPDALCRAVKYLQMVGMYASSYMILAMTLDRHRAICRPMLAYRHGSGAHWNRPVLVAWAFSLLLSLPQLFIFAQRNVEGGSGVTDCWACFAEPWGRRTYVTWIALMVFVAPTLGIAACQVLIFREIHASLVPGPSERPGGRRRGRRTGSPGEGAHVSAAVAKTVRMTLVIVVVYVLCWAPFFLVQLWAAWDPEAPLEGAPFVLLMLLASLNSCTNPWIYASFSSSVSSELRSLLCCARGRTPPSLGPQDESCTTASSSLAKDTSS
Histamine H2 receptor, sequence (P25021 whole entry): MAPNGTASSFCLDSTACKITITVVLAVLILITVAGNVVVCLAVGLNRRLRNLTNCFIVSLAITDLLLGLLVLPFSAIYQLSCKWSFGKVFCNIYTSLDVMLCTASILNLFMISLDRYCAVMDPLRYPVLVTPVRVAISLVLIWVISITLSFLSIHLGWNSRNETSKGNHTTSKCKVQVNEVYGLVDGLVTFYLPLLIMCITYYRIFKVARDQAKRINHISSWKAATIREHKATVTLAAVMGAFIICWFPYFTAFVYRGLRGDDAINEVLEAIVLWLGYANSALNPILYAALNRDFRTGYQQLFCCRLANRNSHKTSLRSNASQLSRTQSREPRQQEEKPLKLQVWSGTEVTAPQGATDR
Sodium-dependent dopamine transporter, sequence (Q01959 whole entry): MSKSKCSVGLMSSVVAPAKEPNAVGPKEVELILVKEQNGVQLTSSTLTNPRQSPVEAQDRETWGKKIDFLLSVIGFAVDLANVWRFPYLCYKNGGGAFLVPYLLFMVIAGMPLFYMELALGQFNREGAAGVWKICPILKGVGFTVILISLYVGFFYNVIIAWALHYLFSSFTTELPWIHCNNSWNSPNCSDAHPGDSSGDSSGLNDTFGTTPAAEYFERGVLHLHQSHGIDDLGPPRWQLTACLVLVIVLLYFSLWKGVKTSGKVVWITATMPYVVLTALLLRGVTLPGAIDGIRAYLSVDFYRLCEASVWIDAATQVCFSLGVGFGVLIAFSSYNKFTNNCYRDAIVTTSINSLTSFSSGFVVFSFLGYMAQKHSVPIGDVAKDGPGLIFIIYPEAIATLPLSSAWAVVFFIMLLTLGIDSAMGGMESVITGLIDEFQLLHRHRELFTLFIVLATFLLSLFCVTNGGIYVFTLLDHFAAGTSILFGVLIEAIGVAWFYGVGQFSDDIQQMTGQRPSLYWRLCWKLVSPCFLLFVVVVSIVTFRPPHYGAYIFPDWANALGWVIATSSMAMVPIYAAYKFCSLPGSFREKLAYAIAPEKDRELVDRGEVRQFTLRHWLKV

Row | SMILES | AC50 [1] | AC50 (Histamine H2 receptor) | AC50 (Vasopressin V2 receptor) | AC50 [2] | AC50 [3] | AC50 [4] | AC50 [5] | AC50 [6] | AC50 [7] | AC50 (Melanocortin receptor 3) | AC50 [8] | AC50 [9] | AC50 (Glucocorticoid receptor)
1 | NS(=O)(=O)c1cc2c(cc1C(F)(F)F)NC(Cc1ccccc1)NS2(=O)=O (stereo not given) [BENDROFLUMETHIAZIDE] | 3.2 µM | > 10 µM | > 10 µM | > 10 µM | > 10 µM | > 30 µM | > 10 µM | > 10 µM | > 10 µM | > 10 µM | > 30 µM | – | –
2 | C=CC1=C(C(=O)O)N2C(=O)[C@@H](NC(=O)/C(=N\OCC(=O)O)c3csc(N)n3)[C@H]2SC1 [CEFIXIME] | > 30 µM | > 30 µM | > 30 µM | > 30 µM | > 30 µM | > 30 µM | > 30 µM | > 30 µM | > 30 µM | > 30 µM | – | > 30 µM | –
3 | CO[C@@]1(NC(=O)Cc2cccs2)C(=O)N2C(C(=O)O)=C(COC(N)=O)CS[C@@H]21 [CEFOXITIN] | > 30 µM | > 30 µM | > 30 µM | > 30 µM | > 30 µM | > 30 µM | > 30 µM | > 30 µM | > 30 µM | > 30 µM | > 30 µM | – | –
4 | N[C@H](Cc1cc(I)c(Oc2cc(I)c(O)c(I)c2)c(I)c1)C(=O)O [DEXTROTHYROXINE] | > 30 µM | > 10 µM | > 30 µM | > 30 µM | > 30 µM | > 10 µM | – | > 10 µM | > 10 µM | > 30 µM | > 30 µM | > 30 µM | 25 µM
5 | C[C@@H]1C[C@H]2[C@@H]3C[C@H](F)C4=CC(=O)C=C[C@]4(C)[C@@]3(F)[C@@H](O)C[C@]2(C)[C@H]1C(=O)CO [DIFLUCORTOLONE] | > 30 µM | – | – | – | – | > 30 µM | > 30 µM | > 30 µM | > 30 µM | > 30 µM | – | – | –
6 | Clc1ccc2c(c1)C(c1ccccc1)=NCc1nncn1-2 [ESTAZOLAM] | > 30 µM | > 10 µM | > 30 µM | > 30 µM | > 30 µM | > 30 µM | – | > 10 µM | > 10 µM | > 30 µM | > 30 µM | > 30 µM | > 30 µM
7 | Clc1ccc(C(Cn2ccnc2)OCc2ccc(Sc3ccccc3)cc2)c(Cl)c1 (stereo not given) [FENTICONAZOLE] | – | > 30 µM | > 30 µM | 30 µM | 23 µM | > 30 µM | – | > 30 µM | > 30 µM | 21 µM | 21 µM | > 30 µM | > 30 µM
8 | CC1(C)C(/C=C/C=C/C=C/C=C2\N(CCCCS(=O)(=O)O)c3ccc4ccccc4c3C2(C)C)=[N+](CCCCS(=O)(=O)[O-])c2ccc3ccccc3c21 [INDOCYANINE GREEN ACID FORM] | – | 24 µM | > 30 µM | > 30 µM | 9 µM | 29 µM | – | – | 9.7 µM | > 30 µM | 13 µM | – | > 30 µM
9 | CC#CCn1c(N2CCC[C@@H](N)C2)nc2c1c(=O)n(Cc1nc(C)c3ccccc3n1)c(=O)n2C [LINAGLIPTIN] | > 30 µM | > 10 µM | > 30 µM | > 30 µM | > 30 µM | > 30 µM | – | > 10 µM | > 10 µM | > 30 µM | 6.5 µM | – | > 30 µM
10 | O=C1CN=C(c2ccccc2)c2cc(Cl)ccc2N1 [NORDAZEPAM] | > 10 µM | > 10 µM | > 30 µM | > 30 µM | > 30 µM | > 30 µM | – | > 10 µM | > 10 µM | > 30 µM | > 10 µM | – | > 30 µM
11 | Cc1cc2nc3c(=O)[nH]c(=O)nc-3n(C[C@H](O)[C@H](O)[C@H](O)COP(=O)(O)O)c2cc1C [RIBOFLAVIN 5'-PHOSPHATE] | > 30 µM | > 30 µM | > 30 µM | > 30 µM | > 30 µM | > 30 µM | – | – | > 30 µM | > 30 µM | > 30 µM | 5.1 µM | 19 µM
12 | [H]/N=C(/N)N[C@H]1[C@H](O)[C@@H](O)[C@H](O[C@@H]2O[C@@H](C)[C@](O)(C=O)[C@H]2O[C@@H]2O[C@@H](CO)[C@H](O)[C@@H](O)[C@@H]2NC)[C@@H](N/C(N)=N\[H])[C@@H]1O [STREPTOMYCIN] | > 30 µM | > 30 µM | > 30 µM | > 30 µM | > 30 µM | > 30 µM | – | > 30 µM | > 30 µM | > 30 µM | – | > 30 µM | > 30 µM
13 | CC(C)(C)NC[C@H](O)COc1nsnc1N1CCOCC1 [TIMOLOL] | > 30 µM | > 30 µM | > 30 µM | > 30 µM | > 30 µM | > 30 µM | – | > 30 µM | > 30 µM | > 30 µM | – | > 30 µM | > 30 µM
14 | COc1cc2nccc(Oc3ccc(NC(=O)Nc4cc(C)on4)c(Cl)c3)c2cc1OC [TIVOZANIB] | 2.6 µM | – | – | – | – | 16 µM | 24 µM | – | > 30 µM | > 3 µM | – | 19 µM | –
15 | Cc1cccc(N(C)C(=S)Oc2ccc3ccccc3c2)c1 [TOLNAFTATE] | > 10 µM | > 30 µM | > 10 µM | > 10 µM | > 10 µM | > 30 µM | – | > 10 µM | > 30 µM | > 10 µM | – | > 30 µM | > 30 µM

From ChEMBL document CHEMBL5291721, “A preclinical secondary pharmacology resource illuminates target-adverse drug reaction associations of marketed drugs” (Nat Commun, 2023)
